Source: PubChem BioAssay AID1259411 (Chemical Carcinogenesis Research Information System (CCRIS), 2018)
Active and inactive are the calls of the source. The rule behind the calls is not given here.

System: rodent carcinogenicity bioassays, tumor incidence
Test: CCRIS carcinogenicity studies
In short: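 Archive of carcinogenicity, mutagenicity, tumor promotion and tumor inhibition results drawn from journals, NCI reports and other sources, expert-reviewed; covers 1985-2011 and is no longer updated.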

Cc1cc2ncccc2c2nc(N)n(C)c12
carcinogen call (Species: MOUSE, Strain/Sex: C57BL/6N/FEMALE, Route: ORAL, Dose: 0, 300 PPM IN DIET FOR 92 WK (STUDY DURATION: 92 WK), Tumor Site: Type of Lesion: COLON: ADENOCARCINOMA, CECUM: ADENOCARCINOMA, LIVER: HEPATOCELLULAR ADENOMA, HEPATOCELLULAR CARCINOMA, OR FIBROSARCOMA, Tumor Site: Type of Lesion: COLON: ADENOCARCINOMA, CECUM: ADENOCARCINOMA, LIVER: HEPATOCELLULAR ADENOMA, HEPATOCELLULAR CARCINOMA, OR FIBROSARCOMA): active; positive
carcinogen call (Species: MOUSE, Strain/Sex: CDF1/FEMALE, Route: ORAL, Dose: 0, 0.04% IN THE DIET FOR STUDY DURATION (STUDY DURATION: LIFESPAN), Tumor Site: Type of Lesion: FORESTOMACH: PAPILLOMA, SQUAMOUS CELL CARCINOMA, LIVER: HEPATOCELLULAR ADENOMA, HEPATOCELLULAR CARCINOMA): active; positive
carcinogen call (Species: MOUSE, Strain/Sex: CDF1/MALE, Route: ORAL, Dose: 0, 0.04% IN THE DIET FOR STUDY DURATION (STUDY DURATION: LIFESPAN), Tumor Site: Type of Lesion: FORESTOMACH: PAPILLOMA, SQUAMOUS CELL CARCINOMA, LIVER: CHOLANGIOCARCINOMA): active; positive
carcinogen call (Species: RAT, Strain/Sex: F344/MALE, Route: ORAL, Dose: 0, 0.03% IN DIET (DAILY INTAKE: 3.8 MG) FOR 286 D (STUDY DURATION: 286 D), Tumor Site: Type of Lesion: ZYMBAL GLAND: SQUAMOUS CELL CARCINOMA, ORAL CAVITY: SQUAMOUS CELL CARCINOMA OR SEBACEOUS SQUAMOUS CELL CARCINOMA, COLON:, Tumor Site: Type of Lesion: ZYMBAL GLAND: SQUAMOUS CELL CARCINOMA, ORAL CAVITY: SQUAMOUS CELL CARCINOMA OR SEBACEOUS SQUAMOUS CELL CARCINOMA, COLON:): active; positive
carcinogen call (Species: RAT, Strain/Sex: F344/MALE, Route: ORAL, Dose: 0, 0.03% IN DIET (DAILY INTAKE: 5.6 MG) FOR 286 D (STUDY DURATION: 286 D), Tumor Site: Type of Lesion: ZYMBAL GLAND: SQUAMOUS CELL CARCINOMA, ORAL CAVITY: SQUAMOUS CELL CARCINOMA OR SEBACEOUS SQUAMOUS CELL CARCINOMA, COLON:, Tumor Site: Type of Lesion: ZYMBAL GLAND: SQUAMOUS CELL CARCINOMA, ORAL CAVITY: SQUAMOUS CELL CARCINOMA OR SEBACEOUS SQUAMOUS CELL CARCINOMA, COLON:): active; positive
carcinogen call (Species: RAT, Strain/Sex: WISTAR/MALE, Route: INTRAGASTRIC, Dose: 0, 10 MG/KG IN ACIDIFIED WATER 1/D FOR 2 WK (STUDY DURATION: 58 WK), Tumor Site: Type of Lesion: ZYMBAL GLAND: CARCINOMA): active; positive

O=S(=O)(O)c1ccc(N=Nc2c(O)ccc3ccccc23)cc1
carcinogen call (Species: MOUSE, Strain/Sex: SWISS-WEBSTER/FEMALE, Route: DERMAL, Dose: 0, 1% IN 0.1 ML DISTILLED WATER 1/WK FOR 18 MO (STUDY DURATION: 18 MO)): inactive; negative
carcinogen call (Species: MOUSE, Strain/Sex: SWISS-WEBSTER/MALE, Route: DERMAL, Dose: 0, 1% IN 0.1 ML DISTILLED WATER 1/WK FOR 18 MO (STUDY DURATION: 18 MO)): inactive; negative

CCCCN(CCCC(=O)O)N=O
carcinogen call (Species: MOUSE, Strain/Sex: B6D2F1/FEMALE, Route: ORAL, Dose: 0, 565 MG/L IN DRINKING WATER FOR 13 WK (STUDY DURATION: 28 WK), Tumor Site: Type of Lesion: URINARY BLADDER: TUMOR): active; positive
carcinogen call (Species: MOUSE, Strain/Sex: B6D2F1/MALE, Route: ORAL, Dose: 0, 565 MG/L IN DRINKING WATER FOR 13 WK (STUDY DURATION: 28 WK), Tumor Site: Type of Lesion: URINARY BLADDER: TUMOR): active; positive

ClCC(Cl)Cl
carcinogen call (Species: MOUSE, Strain/Sex: B6C3F1/FEMALE, Route: GAVAGE, Dose: 0, 195, 390 MG/KG/D, TWA, Dose: 0, 195, 390 MG/KG/D, TWA, Tumor Site: Type of Lesion: LIVER: HEPATOCELLULAR CARCINOMA): active; positive
carcinogen call (Species: MOUSE, Strain/Sex: B6C3F1/MALE, Route: GAVAGE, Dose: 0, 195, 390 MG/KG/D, TWA, Dose: 0, 195, 390 MG/KG/D, TWA, Tumor Site: Type of Lesion: LIVER: HEPATOCELLULAR CARCINOMA): active; positive
carcinogen call (Species: RAT, Strain/Sex: OSBORNE-MENDEL/FEMALE, Route: GAVAGE, Dose: 0, 46, 92 MG/KG/D, TWA, Dose: 0, 46, 92 MG/KG/D, TWA): inactive; negative
carcinogen call (Species: RAT, Strain/Sex: OSBORNE-MENDEL/MALE, Route: GAVAGE, Dose: 0, 46, 92 MG/KG/D, TWA, Dose: 0, 46, 92 MG/KG/D, TWA): inactive; negative

FC(Cl)(Cl)Cl
carcinogen call (Species: MOUSE, Strain/Sex: B6C3F1/FEMALE, Route: GAVAGE, Dose: 0, 1962, 3925 MG/KG, TWA, Dose: 0, 1962, 3925 MG/KG, TWA): inactive; negative
carcinogen call (Species: MOUSE, Strain/Sex: B6C3F1/MALE, Route: GAVAGE, Dose: 0, 1962, 3925 MG/KG, TWA, Dose: 0, 1962, 3925 MG/KG, TWA): inactive; negative
carcinogen call (Species: MOUSE, Strain/Sex: SWISS/FEMALE, Route: INHALATION, Dose: 0, 1000, 5000 PPM 4 HR/D 5 D/WK FOR 78 WK (STUDY DURATION: LIFETIME), Dose: 0, 1000, 5000 PPM 4 HR/D 5 D/WK FOR 78 WK (STUDY DURATION: LIFETIME)): inactive; negative
carcinogen call (Species: MOUSE, Strain/Sex: SWISS/MALE, Route: INHALATION, Dose: 0, 1000, 5000 PPM 4 HR/D 5 D/WK FOR 78 WK (STUDY DURATION: LIFETIME), Dose: 0, 1000, 5000 PPM 4 HR/D 5 D/WK FOR 78 WK (STUDY DURATION: LIFETIME)): inactive; negative
carcinogen call (Species: RAT, Strain/Sex: SPRAGUE-DAWLEY/FEMALE, Route: INHALATION, Dose: 0, 1000, 5000 PPM 4 HR/D 5 D/WK FOR 104 WK (STUDY DURATION: LIFETIME), Dose: 0, 1000, 5000 PPM 4 HR/D 5 D/WK FOR 104 WK (STUDY DURATION: LIFETIME)): inactive; negative
carcinogen call (Species: RAT, Strain/Sex: SPRAGUE-DAWLEY/FEMALE, Route: INHALATION, Dose: 0, 1000, 5000 PPM IN AIR 4 HR/D 5 D/WK FOR 104 WK (STUDY DURATION: LIFETIME), Dose: 0, 1000, 5000 PPM IN AIR 4 HR/D 5 D/WK FOR 104 WK (STUDY DURATION: LIFETIME), Tumor Site: Type of Lesion: [BRAIN WAS ONLY SITE EVALUATED]): inactive; negative
carcinogen call (Species: RAT, Strain/Sex: SPRAGUE-DAWLEY/MALE, Route: INHALATION, Dose: 0, 1000, 5000 PPM 4 HR/D 5 D/WK FOR 104 WK (STUDY DURATION: LIFETIME), Dose: 0, 1000, 5000 PPM 4 HR/D 5 D/WK FOR 104 WK (STUDY DURATION: LIFETIME)): inactive; negative
carcinogen call (Species: RAT, Strain/Sex: SPRAGUE-DAWLEY/MALE, Route: INHALATION, Dose: 0, 1000, 5000 PPM IN AIR 4 HR/D 5 D/WK FOR 104 WK (STUDY DURATION: LIFETIME), Dose: 0, 1000, 5000 PPM IN AIR 4 HR/D 5 D/WK FOR 104 WK (STUDY DURATION: LIFETIME), Tumor Site: Type of Lesion: [BRAIN WAS ONLY SITE EVALUATED]): inactive; negative

Cl/C=C\CCl
carcinogen call (Species: MOUSE, Strain/Sex: ICR/FEMALE, Route: SUBCUTANEOUS, Dose: 3.0 MG/INJ IN 0.05 ML TRIOCTANOIN 1/WK, Tumor Site: Type of Lesion: INJECTION SITE: FIBROSARCOMA): active; positive

O=C1O[C@H]([C@H](O)CO)C(O)=C1O
carcinogen call (Species: MOUSE, Strain/Sex: B6C3F1/FEMALE, Route: ORAL, Dose: 0, 2.5, 5% IN DRINKING WATER FOR 96 WK (STUDY DURATION: 110 WK), Dose: 0, 2.5, 5% IN DRINKING WATER FOR 96 WK (STUDY DURATION: 110 WK)): inactive; negative
carcinogen call (Species: MOUSE, Strain/Sex: B6C3F1/MALE, Route: ORAL, Dose: 0, 1.25, 2.5% IN DRINKING WATER FOR 96 WK (STUDY DURATION: 110 WK), Dose: 0, 1.25, 2.5% IN DRINKING WATER FOR 96 WK (STUDY DURATION: 110 WK)): inactive; negative
carcinogen call (Species: RAT, Strain/Sex: F344/FEMALE, Route: ORAL, Dose: 0, 1.25%, 2.5% IN TAP DRINKING WATER FOR 104 WK (STUDY DURATION: LIFESPAN), Dose: 0, 1.25%, 2.5% IN TAP DRINKING WATER FOR 104 WK (STUDY DURATION: LIFESPAN)): inactive; negative
carcinogen call (Species: RAT, Strain/Sex: F344/MALE, Route: ORAL, Dose: 0, 1.25%, 2.5% IN TAP DRINKING WATER FOR 104 WK (STUDY DURATION: LIFESPAN), Dose: 0, 1.25%, 2.5% IN TAP DRINKING WATER FOR 104 WK (STUDY DURATION: LIFESPAN)): inactive; negative
